Experimental data from ChEMBL document CHEMBL1201862, “PubChem BioAssay data set” (2004).
One block for each compound: values may come before it. Calls of active or inactive are those of the source.

Key:
Paired box protein Pax-8 = Paired box protein Pax-8 (Homo sapiens, UniProt Q06710); assay: inhibitors of PAX8-driven TPO luciferase reporter, dose response, RMG-I cells, cherry-pick (AID 687027); type: functional, cell-based;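 further: luciferase reporter driven by Pax8 target thyroperoxidase promoter measured by SteadyGlo luminescence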
Chain of Paired box protein Pax-8 (Q06710 whole entry): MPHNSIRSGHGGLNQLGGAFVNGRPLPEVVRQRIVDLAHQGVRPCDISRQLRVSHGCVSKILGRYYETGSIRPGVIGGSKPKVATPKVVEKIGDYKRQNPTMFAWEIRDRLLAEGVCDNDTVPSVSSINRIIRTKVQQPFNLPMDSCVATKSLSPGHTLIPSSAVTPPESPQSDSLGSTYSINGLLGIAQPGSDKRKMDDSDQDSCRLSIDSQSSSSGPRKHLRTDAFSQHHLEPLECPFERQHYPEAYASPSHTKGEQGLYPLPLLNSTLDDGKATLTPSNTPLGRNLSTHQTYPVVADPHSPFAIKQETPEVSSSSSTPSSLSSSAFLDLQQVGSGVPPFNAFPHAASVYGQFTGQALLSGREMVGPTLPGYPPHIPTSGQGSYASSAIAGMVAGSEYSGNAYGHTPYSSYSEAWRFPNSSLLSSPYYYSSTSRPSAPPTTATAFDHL

[1] = cytotoxicity in OVCAR8 ovarian cancer cells, dose response, PAX8 project, cell-based, plate reader, dry powder samples (AID 743197); type: functional; details: OVCAR-8
[2] = cytotoxicity dependent on PAX8, dose response, cell-based, plate reader, dry powder (AID 743049); type: functional
[3] = A2780 ovarian cancer cell cytotoxicity, dose response, cytotoxicity control, plate reader, dry powder samples (AID 743046); type: functional, cell-based
[4] = NIH:OVCAR-3 ovarian cancer cell cytotoxicity, dose response, PAX8 inhibitor project, plate reader, dry powder samples (AID 743044); type: functional, cell-based
[5] = A549 cell cytotoxicity, dose response, cytotoxicity control, 24 h, CellTiter-Glo luminescence, cherry-picks (AID 1053115); type: functional, cell-based; details: A549, 24 h
[6] = molecular target: C-C chemokine receptor type 6 (Homo sapiens, UniProt P51684); assay: SAR analysis of small molecule antagonists of the CXCR6 receptor using a CCR6 receptor luminescent beta-arrestin counterscreen.; type: functional
Chain of C-C chemokine receptor type 6 (P51684 whole entry): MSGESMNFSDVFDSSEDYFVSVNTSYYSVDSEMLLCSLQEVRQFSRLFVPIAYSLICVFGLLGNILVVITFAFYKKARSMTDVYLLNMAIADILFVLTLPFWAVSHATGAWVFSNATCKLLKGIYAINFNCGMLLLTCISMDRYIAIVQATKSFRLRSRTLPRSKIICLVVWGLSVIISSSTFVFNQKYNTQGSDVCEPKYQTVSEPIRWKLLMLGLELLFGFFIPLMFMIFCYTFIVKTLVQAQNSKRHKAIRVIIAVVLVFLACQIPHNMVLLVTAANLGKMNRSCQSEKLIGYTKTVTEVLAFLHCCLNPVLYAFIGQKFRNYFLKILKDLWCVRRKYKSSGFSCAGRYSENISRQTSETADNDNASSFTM

[7] = molecular target: C-X-C chemokine receptor type 4 (Homo sapiens, UniProt P61073); assay: SAR analysis of small molecule antagonists of the CXCR6 receptor using a CXCR4 receptor luminescent beta-arrestin counterscreen.; type: functional
Chain of C-X-C chemokine receptor type 4 (P61073 whole entry): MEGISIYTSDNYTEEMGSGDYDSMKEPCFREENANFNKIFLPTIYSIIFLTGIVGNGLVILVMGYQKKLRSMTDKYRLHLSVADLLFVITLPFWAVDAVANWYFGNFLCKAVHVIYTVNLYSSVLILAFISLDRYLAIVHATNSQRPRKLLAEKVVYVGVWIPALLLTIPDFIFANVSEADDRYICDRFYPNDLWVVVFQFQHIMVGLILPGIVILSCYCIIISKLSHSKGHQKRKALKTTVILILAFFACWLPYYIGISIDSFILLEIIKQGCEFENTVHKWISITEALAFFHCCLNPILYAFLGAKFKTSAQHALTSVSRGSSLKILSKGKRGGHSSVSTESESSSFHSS

[8] = CTGF mRNA reduction under YAP1 overexpression, dose response, mechanism study for YAP1 pathway inhibitor project, DLD1 cells, RT-qPCR, cherry-pick (AID 1053127); type: functional, cell-based; details: DLD-1
[9] = A375 melanoma cell viability loss, dose response, counter-screen for MITF inhibitor project, CellTiter-Glo luminescence, dry powder, set 4 (AID 624364); type: functional, cell-based; details: A-375;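 further: A375 melanoma cells are MITF independent so this is a counter screen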
[10] = A375 melanoma cell cytotoxicity, dose response, counter-screen for MITF inhibitor project, CellTiter-Glo luminescence, dry powder, set 2 (AID 624489); type: functional, cell-based; details: A-375;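 further: actives are compounds lowering A375 viability meaning general cytotoxicity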
Kallikrein-7 = Kallikrein-7 (Homo sapiens, UniProt P49862); assay: Fluorescence Intensity-based biochemical primary high throughput dose response assay to identify activators of kallikrein-7 (K7) zymogen.
Chain of Kallikrein-7 (P49862 whole entry): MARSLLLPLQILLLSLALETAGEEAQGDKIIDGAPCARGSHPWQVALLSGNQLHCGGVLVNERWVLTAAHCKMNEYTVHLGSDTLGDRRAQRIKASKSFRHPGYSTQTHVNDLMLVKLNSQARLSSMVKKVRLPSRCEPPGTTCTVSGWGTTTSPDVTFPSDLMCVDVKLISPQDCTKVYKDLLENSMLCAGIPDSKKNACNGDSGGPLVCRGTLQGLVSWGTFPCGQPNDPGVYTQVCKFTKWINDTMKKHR

[11] = P. falciparum 3D7-ScDHODH growth inhibitors, dose response, SYBR Green, dry powder samples (AID 1159570); type: functional, cell-based;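 further: parasite growth measured after 72 hours of compound exposure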
[12] = P. falciparum Dd2 growth inhibitors, dose response, SYBR Green, dry powder samples (AID 1159566); type: functional, cell-based;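 further: potency for growth inhibition with lower SYBR green DNA signal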
[13] = P. falciparum Dd2 growth inhibitors, dose response, SYBR Green, cherry-picked samples (AID 1159567); type: functional, cell-based
[14] = HepG2 cell cytotoxicity, dose response, cytotoxicity control, plate reader, dry powder samples (AID 1159569); type: functional, cell-based;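 further: inhibitor potency with signal falling toward the positive control level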
[15] = P. falciparum ATP4 D1247Y mutant growth inhibitors, dose response, NITD609-resistant line, SYBR Green, dry powder (AID 1159571); type: functional, cell-based;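 further: parasites synchronized at ring stage by sorbitol before testing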
[16] = Mtb BioA inhibitors by displacement, dose response, biochemical, coupled fluorescence displacement, 20-point, dry powder (AID 743357); type: functional
[17] = molecular target: 1-phosphatidylinositol 4,5-bisphosphate phosphodiesterase gamma-1 (Homo sapiens, UniProt P19174); assay: Counterscreen for inhibitors of phospholipase C isozymes (PLC-B3): Fluorescence-based biochemical high throughput dose response assay to identify inhibitors of phospholipase C isozymes (PLC-gamma1).
Chain of 1-phosphatidylinositol 4,5-bisphosphate phosphodiesterase gamma-1 (P19174 whole entry): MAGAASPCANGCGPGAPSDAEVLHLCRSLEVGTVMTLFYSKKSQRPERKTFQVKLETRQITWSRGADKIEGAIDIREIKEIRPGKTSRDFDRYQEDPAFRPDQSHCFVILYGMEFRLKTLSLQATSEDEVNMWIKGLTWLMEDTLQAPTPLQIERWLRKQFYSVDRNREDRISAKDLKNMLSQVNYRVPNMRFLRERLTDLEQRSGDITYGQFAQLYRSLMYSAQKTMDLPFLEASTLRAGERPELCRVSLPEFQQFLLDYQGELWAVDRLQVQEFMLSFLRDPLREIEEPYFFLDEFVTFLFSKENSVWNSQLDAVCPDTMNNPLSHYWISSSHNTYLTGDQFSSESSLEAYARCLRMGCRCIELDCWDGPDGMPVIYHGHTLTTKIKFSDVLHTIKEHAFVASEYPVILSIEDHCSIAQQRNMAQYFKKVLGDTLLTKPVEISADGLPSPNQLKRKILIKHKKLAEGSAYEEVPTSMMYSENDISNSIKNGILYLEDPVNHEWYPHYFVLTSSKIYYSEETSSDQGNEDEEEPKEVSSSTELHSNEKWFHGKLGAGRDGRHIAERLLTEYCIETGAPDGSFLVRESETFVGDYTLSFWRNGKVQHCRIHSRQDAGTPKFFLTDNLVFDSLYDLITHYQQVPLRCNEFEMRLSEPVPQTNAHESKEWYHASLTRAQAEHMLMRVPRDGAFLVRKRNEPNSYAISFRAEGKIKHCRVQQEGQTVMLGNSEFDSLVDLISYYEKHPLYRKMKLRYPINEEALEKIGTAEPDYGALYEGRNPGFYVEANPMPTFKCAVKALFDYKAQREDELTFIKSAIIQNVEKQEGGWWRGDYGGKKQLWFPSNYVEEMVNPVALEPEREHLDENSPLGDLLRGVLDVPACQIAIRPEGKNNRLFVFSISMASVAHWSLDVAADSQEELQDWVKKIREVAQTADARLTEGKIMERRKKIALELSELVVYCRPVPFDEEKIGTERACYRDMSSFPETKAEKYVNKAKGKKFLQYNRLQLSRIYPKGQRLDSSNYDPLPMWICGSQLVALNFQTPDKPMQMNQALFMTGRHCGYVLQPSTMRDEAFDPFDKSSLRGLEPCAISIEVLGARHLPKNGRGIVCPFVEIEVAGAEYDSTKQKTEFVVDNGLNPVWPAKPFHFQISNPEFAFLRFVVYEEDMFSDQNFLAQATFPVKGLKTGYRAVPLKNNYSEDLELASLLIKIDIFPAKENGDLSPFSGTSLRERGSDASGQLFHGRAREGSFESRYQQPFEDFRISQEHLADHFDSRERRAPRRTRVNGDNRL

[18] = molecular target: 1-phosphatidylinositol 4,5-bisphosphate phosphodiesterase beta-3 (Homo sapiens, UniProt Q01970); assay: Fluorescence-based biochemical high throughput dose response assay to identify inhibitors of phospholipase C isozymes (PLC-B3).
Chain of 1-phosphatidylinositol 4,5-bisphosphate phosphodiesterase beta-3 (Q01970 whole entry): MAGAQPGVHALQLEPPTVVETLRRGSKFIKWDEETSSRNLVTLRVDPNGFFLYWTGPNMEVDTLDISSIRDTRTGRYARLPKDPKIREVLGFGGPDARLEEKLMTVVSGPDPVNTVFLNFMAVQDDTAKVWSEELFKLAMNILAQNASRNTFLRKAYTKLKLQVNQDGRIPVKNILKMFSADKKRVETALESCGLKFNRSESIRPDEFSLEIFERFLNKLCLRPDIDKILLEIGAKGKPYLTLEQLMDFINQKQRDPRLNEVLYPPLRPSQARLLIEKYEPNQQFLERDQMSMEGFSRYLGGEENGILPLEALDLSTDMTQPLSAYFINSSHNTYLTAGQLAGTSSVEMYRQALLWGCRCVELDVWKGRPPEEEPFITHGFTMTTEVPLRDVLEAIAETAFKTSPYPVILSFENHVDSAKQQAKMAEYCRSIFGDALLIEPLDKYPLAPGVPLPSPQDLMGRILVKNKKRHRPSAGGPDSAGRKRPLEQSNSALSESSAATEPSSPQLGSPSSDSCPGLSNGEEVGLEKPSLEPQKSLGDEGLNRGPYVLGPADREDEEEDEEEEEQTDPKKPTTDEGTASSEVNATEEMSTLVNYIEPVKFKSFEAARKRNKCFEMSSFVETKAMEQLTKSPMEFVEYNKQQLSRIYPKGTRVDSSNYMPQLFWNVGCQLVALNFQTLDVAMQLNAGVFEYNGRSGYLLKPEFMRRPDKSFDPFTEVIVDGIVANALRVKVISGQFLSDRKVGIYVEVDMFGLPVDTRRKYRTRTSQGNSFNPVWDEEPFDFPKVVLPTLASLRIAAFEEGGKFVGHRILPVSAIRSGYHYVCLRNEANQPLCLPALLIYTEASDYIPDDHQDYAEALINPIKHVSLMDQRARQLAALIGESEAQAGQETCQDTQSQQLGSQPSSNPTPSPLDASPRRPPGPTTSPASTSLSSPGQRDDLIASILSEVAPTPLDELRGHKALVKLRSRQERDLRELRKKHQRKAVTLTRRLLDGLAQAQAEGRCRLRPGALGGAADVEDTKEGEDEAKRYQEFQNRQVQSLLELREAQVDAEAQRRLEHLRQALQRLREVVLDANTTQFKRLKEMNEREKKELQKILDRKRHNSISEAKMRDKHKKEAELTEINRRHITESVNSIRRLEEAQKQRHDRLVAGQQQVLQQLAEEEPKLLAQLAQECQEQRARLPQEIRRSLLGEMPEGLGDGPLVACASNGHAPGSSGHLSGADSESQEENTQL

[19] = cytotoxicity toward HCT116 cells – cell-based, CellTiter-Glo luminescence, IC50, dose response (AID 1117332); type: functional; details: HCT-116
[20] = cytotoxicity toward HT-29 cells – cell-based, CellTiter-Glo luminescence, IC50, dose response (AID 1117330); type: functional
[21] = Glucagon-like peptide 1 release potency, NCI-H716 cell line, dose-response, half-maximal inhibitory concentration (AID 1117344); type: functional, cell-based
[22] = SNU-C1 cell viability reduction, dose response, CellTiter-Glo luminescence (AID 1117323); type: functional, cell-based
[23] = HCT116 cell viability decrease, GSK3B pretreatment – CellTiter-Glo, IC50, dose response (AID 1117339); type: functional; details: HCT-116
[24] = RKO cell viability reduction, dose response, CellTiter-Glo luminescence (AID 1117322); type: functional
[25] = HeLa 4N DNA content increase, dose response, cell-based, IC50 (AID 1117351); type: functional
[26] = CellTiter-Glo luminescent dose response of DLD-1 viability loss (AID 1117352); type: functional
[27] = Concentration-dependent survival of SW480 colon cancer line, luminescence detection with CellTiter-Glo, half-maximal inhibitory concentration (AID 1117338); type: functional
[28] = cytotoxicity toward Colo320 cells – cell-based, CellTiter-Glo luminescence, IC50, dose response (AID 1117334); type: functional; details: COLO 320
[29] = HeLa 2N DNA content increase, dose response, cell-based, IC50 (AID 1117349); type: functional
[30] = half-maximal inhibitory concentration for glucagon-like peptide-1 release, STC-1 cell line, dose-response (AID 1117345); type: functional, cell-based
[31] = cytotoxicity in KRAS-transformed pancreatic duct cells, primary screen, cell-based, fluorescence, HTS (AID 431); type: functional; details: Homo sapiens;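 further: cell line used: HPDE-C7K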
[32] = cytotoxicity in HPDE-C7 cells, cell-based, fluorescence, HTS (AID 430); type: functional; details: Homo sapiens
[33] = Dose-response inhibition of insulin secretion in a rat insulinoma line at 5 mM glucose (AID 1117331); type: functional, cell-based; details: INS-1E

SMILES: C[C@@H]1CN([C@H](C)CO)C(=O)CCCn2cc(nn2)CO[C@H]1CN(C)C(=O)Nc1ccc(-c2cccs2)cc1
AC50 (Paired box protein Pax-8): < 0.26 µM (active) | AC50 [1]: > 70 µM (inactive) | AC50 [2]: 1.65 µM (active)

SMILES: O=C(C1CCC1)N1CC(=O)N2[C@H](C1)[C@H](c1ccc(C#Cc3cccc(F)c3)cc1)[C@@H]2CO
AC50 [3]: 18 µM (active) | AC50 (Paired box protein Pax-8): 10.6 µM (active) | AC50 [1]: > 70 µM (inactive) | AC50 [4]: 9.85 µM (active)

SMILES: N#Cc1ccc(-c2ccc3c(c2)[C@@H]2[C@@H](CCN2C(=O)C2CCCCC2)[C@H](CO)N3)cc1
AC50 [5]: 46.8 µM (active)

SMILES: COc1ccc(NC(=O)CN2C3CCCC2CC(NC(=O)c2cc(OC)c(OC)c(OC)c2)C3)cc1 (configuration not stated)
IC50 [6]: > 79 µM (inactive) | IC50 [7]: > 79 µM (inactive)

SMILES: Cc1ccccc1-c1ccc([C@H]2[C@@H](CO)N3CCCCN(S(=O)(=O)Cc4ccccc4)C[C@@H]23)cc1
AC50 [8]: > 26 µM (inactive)

SMILES: C=CCNC1=C(N2CCN(CC)CC2)C(=O)c2ccccc2C1=O
AC50 [9]: 29.3 µM (active) | AC50 [10]: 13.8 µM (active)

EC50 (Kallikrein-7): > 69.6 µM (inactive)
SMILES: COc1ccc(OC)c(/C=N\NC(=O)c2c(C)nc3cc(C)ccn23)c1

SMILES: COc1cccc(C#Cc2cnc3c(c2)C(=O)N([C@H](C)CO)C[C@H](C)[C@@H](CN(C)C(=O)C2CCCCC2)O3)c1
AC50 [11]: 1.58 µM (active) | AC50 [12]: 0.643 µM (active) | AC50 [13]: 0.722 µM (active) | AC50 [14]: 29.4 µM (active) | AC50 [15]: 0.803 µM (active)

SMILES: COc1ccc(C(=O)N2CCN(c3ccc(C(C)=O)cc3)CC2)cc1OC
AC50 [16]: 11.7 µM (active)

IC50 [17]: > 123 µM (inactive) | IC50 [18]: > 123 µM (inactive)
SMILES: O=C(O)CCCN1C(=O)/C(=C\c2ccco2)SC1=S

SMILES: COC(=O)Nc1nc2cc(Sc3ccccc3)ccc2[nH]1 [FENBENDAZOLE]
IC50 [19]: 0.001 µM (active) | IC50 [20]: > 20 µM (inactive) | IC50 [21]: > 40 µM (inactive) | IC50 [22]: > 20 µM (inactive) | IC50 [23]: 0.003 µM (active) | IC50 [24]: 0.001 µM (active) | IC50 [25]: 0.195 µM (active) | IC50 [26]: 0.0673 µM (active) | IC50 [27]: > 20 µM (inactive) | IC50 [28]: > 20 µM (inactive) | IC50 [29]: 0.204 µM (active) | IC50 [30]: > 20 µM (inactive)

SMILES: CN1C[C@H](CNC(=O)OCc2ccccc2)C[C@@H]2c3cccc4c3c(cn4C)C[C@H]21 [METERGOLINE]
EC50 [31]: > 20 µM (not active) | EC50 [32]: > 20 µM (not active) | IC50 [33]: > 33.3 µM (inactive)
